Results reported in patent publication US9789096B2, “Methods and compositions for selective and targeted cancer therapy” (Board of Regents of the University of Texas System, priority 2013, dated 2017).
Like-named read-outs stand apart in the source and are kept apart here.

How the values were obtained:
HBEC30KT = test: Cell viability (ATP, Cell Titer Glo, 4 days), HBEC30KT; assay type: cell-based, human; settings: Homo sapiens, Tables 3 and 4; read-out: HBEC30KT IC50
Method: (§1) FIG. 6A. […] Cell viability is plotted vs. compound concentration. Compound was added to cells plated at 15% confluence in 96-well plates in RPMI-1640 media supplemented with 5% Fetal Bovine Serum and 2 mM L-Glutamine. After 4 days of incubation, ATP levels were measured using Cell Titer Glo (Promega). Data are presented as the average of 2 replicates ±SEM.
(§2) Selectivity may be measured by the half maximal inhibitory concentration (IC50), which, as used herein, is a measure of the effectiveness of a compound in killing cells. This quantitative measure indicates how much of a particular compound is needed to kill a particular cell population by half (e.g., as indicated by the amount of ATP). […] The IC50 can be determined by constructing a dose-response curve. The lower the IC50, the higher the potency, and the greater the difference between IC50 values for different cell lines (e.g., sensitive lines vs. insensitive lines, and sensitive lines vs. normal lines) the greater the selectivity. […]

H1155 = test: Cell viability dose-response, H1155; assay type: cell-based; settings: Homo sapiens, NCI-H1155; Tables 3 and 4; read-out: IC50 (uM) vs indicated non-small cell lung cancer cell line H1155
Method: as §1, §2
(§3) With this information, we synthesized and tested a series of small molecules derived in conception from the oxalamide and chromone scaffold including N-acyl ureas, as shown in Tables 6-8. Each compound was tested in a 12-point dose-response study starting at 50 micromolar and decreasing in 3-fold increments to sub-nanomolar concentrations, in duplicate. Additionally, one or more additional cell line was tested in the same way.

H1395 = test: Cell viability dose-response, H1395; assay type: cell-based; settings: Homo sapiens, NCI-H1395; Tables 3 and 4; read-out: IC50 (uM) vs indicated non-small cell lung cancer cell line H1395
Method: as §1, §2, §3

H1819 = test: Cell viability dose-response, H1819; assay type: cell-based, human; settings: Homo sapiens, NCI-H1819, Tables 3 and 4; read-out: IC50 (uM) vs indicated non-small cell lung cancer cell line H1819
How it was run: (§4)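 Viability read as total ATP (Cell Titer Glo) following 4 days' compound exposure, with IC50 derived from dose-response curves. Duplicate 12-point series, top concentration 50 micromolar with 3-fold steps, on cells seeded at 15% confluence in RPMI-1640, 5% FBS, 2 mM L-glutamine.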

H1993 = test: Cell viability dose-response, H1993; assay type: cell-based; settings: Homo sapiens, NCI-H1993; Tables 3 and 4; read-out: IC50 (uM) vs indicated non-small cell lung cancer cell line H1993
Method: as §1, §2, §3

H2009 = test: Cell viability dose-response, H2009; assay type: cell-based, human; settings: Homo sapiens, NCI-H2009; Tables 3 and 4; read-out: IC50 (uM) vs indicated non-small cell lung cancer cell line H2009
How it was run: (§5)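 Read-out is total cellular ATP, measured with CellTiter-Glo after four days of compound treatment. Cells start at 15% confluence in RPMI-1640 containing 5% FBS and 2 mM L-glutamine. Each point averages two replicates (±SEM).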

H2073 = test: Cell viability dose-response, H2073; assay type: cell-based, human; settings: read-out: IC50 (uM) vs indicated non-small cell lung cancer cell line H2073
How it was run: as §5

H2122 = test: Cell viability dose-response, H2122; assay type: cell-based, human
How it was run: as §4

HCC366 = test: Cell viability dose-response, HCC366; assay type: cell-based; settings: Homo sapiens, Tables 3 and 4, read-out: IC50 (uM) vs indicated non-small cell lung cancer cell line HCC366
Method: as §1, §2, §3

HCC4017 = test: Cell viability dose-response, HCC4017; assay type: cell-based, human; settings: Homo sapiens, HCC4017, Tables 3 and 4; read-out: IC50 (uM) vs indicated non-small cell lung cancer cell line HCC4017
Method: as §1, §2, §3

HCC44 = test: Cell viability dose-response, HCC44; assay type: cell-based, human; settings: read-out: IC50 (uM) vs indicated non-small cell lung cancer cell line HCC44
How it was run: as §5

HCC95 = test: Cell viability dose-response, HCC95; assay type: cell-based; settings: Homo sapiens, Tables 3 and 4, read-out: IC50 (uM) vs indicated non-small cell lung cancer cell line HCC95
Method: as §1, §2, §3

H460 = test: Cell viability dose-response, H460; assay type: cell-based; settings: Homo sapiens, NCI-H460; Tables 3 and 4; read-out: IC50 (uM) vs indicated non-small cell lung cancer cell line H460
Method: as §1, §2, §3

[1] = Homo sapiens, NCI-H2073, Tables 3 and 4
[2] = Homo sapiens, NCI-H2122, Tables 3 and 4, read-out: IC50 (uM) vs indicated non-small cell lung cancer cell line H2122
[3] = Homo sapiens, HCC44, Tables 3 and 4

SMILES | IC50 (HBEC30KT) [µM] | IC50 (H1155) [µM] | IC50 (H1395) [µM] | IC50 (H1819) [µM] | IC50 (H1993) [µM] | IC50 (H2009) [µM] | IC50 (H2073; [1]) [µM] | IC50 (H2122; [2]) [µM] | IC50 (HCC366) [µM] | IC50 (HCC4017) [µM] | IC50 (HCC44; [3]) [µM] | IC50 (HCC95) [µM] | IC50 (H460) [µM] | IC50 (H2122; Homo sapiens, NCI-H2122, Table 9, competitor, read-out: IC50 to H2122 cells) [µM] | IC50 (H2073; Tables 3 and 4) [µM] | IC50 (H2122; Tables 3 and 4, read-out: IC50 (uM) vs indicated non-small cell lung cancer cell line H2122) [µM] | IC50 (HCC44; Tables 3 and 4) [µM]
O=C(Nc1nc2c(s1)CCCC2)c1ccccc1Oc1ccccc1 [SW045964] | 321 | 389 | 620 | 143 | 55.9 | 55 | 3.2 | 1 | 149 | 407 | 489 | 140 |  |  |  |  | 
O=C(Nc1nc2ccc(F)cc2s1)c1sc2ccccc2c1Cl [SW147703] | 33.3 | 13.3 |  |  | 13.5 | 34.5 | 1.12 | 3.3 |  |  | 37.5 | 32.4 |  |  |  |  | 
COc1ccc2nc(NC(=O)c3cccnc3)sc2c1 [SW202774-1] | 46.7 | 35.2 |  |  | 25.5 | 36.6 | 1.34 | 1.08 |  |  | 1.01 | 0.336 | 1.31 |  |  |  | 
COc1ccc2nc(NC(=O)c3ccc(N)cc3)sc2c1 [SW001286] | 130 | 25 | 35 | 24 | 27 | 22 | 0.3 | 0.048 | 35 | 35 | 3 | 2 | 0.4 | 0.04 |  |  | 
NC(=O)c1c(NC(=O)c2ccc(Br)o2)sc2c1CCCC2 [SW172864] | 12.6 |  | 44.5 |  | 0.871 | 3.2 | 0.129 |  |  | 1.71 | 2.52 | 43.6 | 35.1 |  |  |  | 
COc1ccc2nc(NC(=O)c3c(F)ccc(OC)c3F)sc2c1 [SW202775-1] |  | 35.5 |  |  | 8.87 |  | 5.96 | 6.53 |  |  | 16.9 | 3.19 | 48 |  |  |  | 
COc1ccc2sc(NC(=O)c3ccc([N+](=O)[O-])cc3)nc2c1 [SW004969] |  |  |  |  |  | 5.5 | 0.658 | 0.21 |  |  |  | 0.2 | 0.521 |  |  |  | 
O=C(Nc1nc2ccccc2s1)c1ccc(-c2ccccc2)cc1 [SW001811] | 348 | 125 | 185 | 59 | 85 | 125 |  | 0.7 | 220 | 120 | 165 | 58 | 450 |  |  |  | 
COc1ccc2nc(NC(=O)c3ccc([N+](=O)[O-])cc3)sc2c1 [SW001282-2] | 49.2 |  |  |  |  | 2.81 | 0.752 | 0.159 |  |  | 30.1 | 19.6 | 0.512 |  |  |  | 
O=C(Nc1nc2ccc(O)cc2s1)c1c(F)ccc(O)c1F [SW202860-1] |  | 49.2 |  |  | 35.6 | 41.7 | 18.1 | 4.05 | 42.6 | 47.5 | 15.1 | 44.9 | 47.8 |  |  |  | 
CCN(CC)c1ccc(C(=O)Nc2nc3ccc4ccccc4c3s2)cc1 [SW018825] |  |  |  |  | 47.5 |  | 0.424 | 0.129 |  |  |  | 2.23 |  |  |  |  | 
CCOC(=O)c1c(NC(=O)c2ccc([N+](=O)[O-])cc2)sc2c1CCCC2 [SW108364-2] | 35.2 |  |  |  | 23.4 | 15.8 | 24.3 | 5.92 |  | 35.2 | 35.2 |  |  |  |  |  | 
O=C(c1ccc(O)cc1)c1ccc(NC(=O)c2sc3ccccc3c2Cl)cc1 [SW202856-1] | 6.08 | 20.4 |  | 40.2 | 13.6 | 4.76 | 48.4 | 33.8 | 40.6 | 13.3 | 1.06 | 12.8 | 44.5 |  |  |  | 
O=C(Nc1ccccc1F)c1sc2ccccc2c1Cl [SW118094] | 34.1 |  |  | 1.21 |  |  |  | 1.05 | 124 | 0.322 | 0.09 |  | 0.606 |  |  |  | 
NC(=O)c1c(NC(=O)COc2ccccc2)sc2c1CCCC2 [SW119324] | 10.4 | 44.5 |  |  | > 8 | 0.881 |  |  |  |  | 34.4 | 28.5 |  |  |  |  | 
O=C(Nc1ccc(F)c(Cl)c1)c1sc2ccccc2c1Cl [SW118753] | 108 | 105 | 600 | 38 | 73 | 65 | 0.9 | 0.8 | 375 | 700 | 265 | 300 |  |  |  |  | 
CCOC(=O)c1c(NC(=O)c2ccc(F)cc2)sc2c1CCCC2 [SW202859-1] | 38.2 |  |  |  | 47.1 |  |  |  |  |  |  | 31.4 |  |  |  |  | 
CCOc1cc(OCC)cc(C(=O)Nc2nc3ccc(OC)cc3s2)c1 [SW202776-1] |  | 46.2 |  |  |  | 15.3 | 4.56 |  |  |  |  | 8.15 |  |  |  |  | 
Cc1cc(C)nc(SCC(=O)Nc2nc3ccccc3s2)n1 [SW053831] | 60 | 43 | 65 | 63 | 29 | 104 | 0.85 | 47 | 80 | 98 | 33 | 85 |  |  |  |  | 
COC(=O)c1ccc(C(=O)Nc2nc3ccc(N)cc3s2)cc1 [SW001296] |  |  |  |  |  |  |  | 35.1 |  |  | 0.34 |  | 4.46 |  | 3.72 |  | 
O=C(Nc1nc2c(s1)CCCC2)c1ccc(Cc2ccccc2)cc1 [SW011940] |  | 21.7 | 35.6 | 46.3 | 12.7 | 7 | 2.63 | 0.037 |  | 4.26 | 50.6 | 5.86 | 2.13 |  |  |  | 
O=C(Nc1nnc(C2CCCCC2)s1)c1sc2ccccc2c1Cl [SW173997] |  | 23.8 | 41.3 | 48.5 | 16.9 | 21.5 | 11.4 | 0.27 | 40.9 | 24 | 23.1 | 23.8 | 44.5 |  |  |  | 
O=C(Nc1nc2ccccc2s1)c1ccc([N+](=O)[O-])cc1 [SW003992] | 1630 | 2870 | 1580 | 358 | 524 |  | 0.65 | 0.14 | 1040 | 1440 | 3500 | 2270 |  |  |  |  | 
COc1ccccc1NC(=O)c1sc2ccccc2c1Cl [SW004989] |  |  |  | 43.7 | > 5 | > 8 | 0.052 | 0.801 |  | 249 | 56.8 |  |  |  |  | 1.02 | 38.7
